Where two headings read alike, the source gives them in different places.

The test system of assay [1] is phosphorylation of pRb at the Ser780 site in JeKo-1 mantle cell lymphoma cells. As to the kind of experiment: CDK4 cellular assay: ELISA of pRb phosphorylation at Ser780 in JeKo-1 cells. The following applies: Homo sapiens. It is filed as cell-based. In general terms: ELISA stands for enzyme-linked immunosorbent assay.
The target in the next assay is CDK1/cyclin B (Homo sapiens (Human), UniProt P06493). As to the kind of experiment: CDK1/cyclin B enzymatic activity assay (IMAP-FP). The format is biochemical. An excerpt:
CDK1/Cyclin B Enzymatic Activity Assay
A 384-well microtiter IMAP-FP™ (Molecular Devices Trade Mark Technology) endpoint assay was used for CDK1/cyclin B kinase activity measurements. The same assay was used for IC50 determination of small molecule inhibitors.

A further assay addresses CDK4/cyclin D1 (Homo sapiens (Human), UniProt P11802). As to the kind of experiment: CDK4/cyclin D1 enzymatic activity assay (TR-FRET, phosphorylation of pRb at Ser780). It is filed as biochemical. In a few lines:
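Phosphorylation at pRb Ser780, detected by TR-FRET, gave IC50s and kinetics. Enzyme: baculovirus/Sf21-expressed human CDK4/cyclin D1. ATP at 3 μM initiated the reaction; EDTA (pH 8.0) stopped it after 60 min at 22° C.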

[2] abbreviates: JeKo-1 cells, p-pRb % inhibition adjusted with total pRb levels, read-out: Normalized cellular ppRb inhibition IC50.
Where [3] appears, read: JeKo-1 cells, p-pRb Ser780 ELISA, non-normalized, read-out: Cellular ppRb inhibition IC50.
The mark [4] stands for this setting: […] CDK1/cyclin B, 100 nM Tamra Histone-H1 peptide, 20 μM ATP, 120 min at room temperature, read-out: Biochemical CDK1 enzyme IC50.
[5] abbreviates: 0.3 nM CDK4/cyclin D1, 150 nM biotin-pRb (773-924), 3 μM ATP, 60 min at 22° C., read-out: Biochemical CDK4 enzyme IC50.
The mark [6] stands for this setting: JeKo-1, JeKo-1 cells, p-pRb % inhibition adjusted with total pRb levels, read-out: Normalized cellular ppRb inhibition IC50.
Setting [7] is: JeKo-1, JeKo-1 cells, p-pRb Ser780 ELISA, non-normalized, read-out: Cellular ppRb inhibition IC50.
The mark [8] stands for this setting: 0.25 nM CDK1/cyclin B, 100 nM Tamra Histone-H1 peptide, 20 μM ATP, 120 min at room temperature, read-out: Biochemical CDK1 enzyme IC50.

CDK1/cyclin B, sequence (P06493 whole entry, species assumed): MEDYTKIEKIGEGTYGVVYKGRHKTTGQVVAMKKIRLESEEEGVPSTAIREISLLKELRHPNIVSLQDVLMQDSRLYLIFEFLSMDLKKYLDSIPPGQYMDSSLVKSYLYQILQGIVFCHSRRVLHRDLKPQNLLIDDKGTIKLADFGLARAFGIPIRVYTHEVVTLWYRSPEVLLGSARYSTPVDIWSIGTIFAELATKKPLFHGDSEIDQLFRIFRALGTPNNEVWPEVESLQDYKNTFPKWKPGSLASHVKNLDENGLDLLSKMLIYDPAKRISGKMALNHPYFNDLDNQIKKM
CDK1/cyclin B, sequence (P14635 whole entry partner, species assumed): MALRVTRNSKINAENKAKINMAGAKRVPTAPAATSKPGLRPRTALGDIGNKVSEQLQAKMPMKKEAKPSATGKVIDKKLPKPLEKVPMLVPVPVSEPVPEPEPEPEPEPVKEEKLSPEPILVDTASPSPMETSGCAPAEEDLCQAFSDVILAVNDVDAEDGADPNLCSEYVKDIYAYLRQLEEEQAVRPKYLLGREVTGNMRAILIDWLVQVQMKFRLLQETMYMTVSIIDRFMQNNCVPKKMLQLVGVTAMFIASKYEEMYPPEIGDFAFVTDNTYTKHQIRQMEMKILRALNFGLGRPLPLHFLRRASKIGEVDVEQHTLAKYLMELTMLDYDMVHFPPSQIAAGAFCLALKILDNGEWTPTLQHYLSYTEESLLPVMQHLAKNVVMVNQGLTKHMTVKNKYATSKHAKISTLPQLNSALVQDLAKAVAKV
CDK4/cyclin D1, sequence (P11802 whole entry): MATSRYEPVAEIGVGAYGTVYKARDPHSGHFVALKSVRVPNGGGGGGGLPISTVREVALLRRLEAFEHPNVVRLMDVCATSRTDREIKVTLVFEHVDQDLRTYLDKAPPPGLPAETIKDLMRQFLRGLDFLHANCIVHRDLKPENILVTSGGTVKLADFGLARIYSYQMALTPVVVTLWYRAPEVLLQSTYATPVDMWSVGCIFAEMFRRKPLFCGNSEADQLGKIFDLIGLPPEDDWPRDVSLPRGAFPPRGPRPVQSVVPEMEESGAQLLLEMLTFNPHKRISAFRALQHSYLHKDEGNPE
CDK4/cyclin D1, sequence (P24385 whole entry partner): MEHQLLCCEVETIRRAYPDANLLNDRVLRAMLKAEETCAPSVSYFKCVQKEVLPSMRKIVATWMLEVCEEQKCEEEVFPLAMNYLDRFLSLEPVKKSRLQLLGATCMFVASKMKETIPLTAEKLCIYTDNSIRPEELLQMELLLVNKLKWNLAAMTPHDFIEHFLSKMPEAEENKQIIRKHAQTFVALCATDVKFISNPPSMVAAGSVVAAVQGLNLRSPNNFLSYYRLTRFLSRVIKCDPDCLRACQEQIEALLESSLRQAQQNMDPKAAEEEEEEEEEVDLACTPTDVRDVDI

What is called IC50 is the concentration at which inhibition is half-maximal. For the molecule `CC(=O)N1C2CCC1CN(C(=O)c1ccc(Nc3ncc4cc(C(=O)N(C)C)n(C5CCCCCC5)c4n3)nc1)C2` [Example 8, 2-(5-(8-acetyl-3,8-diazabicyclo[3.2.1]octane-3-carbonyl)pyridin-2-ylamino)-7-cycloheptyl-N,N-dimethyl-7H-pyrrolo[2,3-d]pyrimidine-6-carboxamide], the IC50 in assay [1] (setting [2]) is 259 nM; in assay [1] (setting [3]), 72 nM; on CDK1/cyclin B (setting [4]), above 15000 nM; on CDK4/cyclin D1 (setting [5]), 39 nM.

With `Cc1nc(Nc2ncc3cc(C(=O)N(C)C)n(C4CCCC4)c3n2)ccc1C(=O)N1CC2CCC(C1)N2` [Example 50, 7-Cyclopentyl-2-[5-(3,8-diaza-bicyclo[3.2.1]octane-3-carbonyl)-6-methyl-pyridin-2-ylamino]-7H-pyrrolo[2,3-d]pyrimidine-6-carboxylic acid dimethylamide], the IC50 is 90 nM in assay [1] (setting [6]), 41 nM in assay [1] (setting [7]), above 15000 nM at CDK1/cyclin B (setting [4]) and 21 nM on CDK4/cyclin D1 (setting [5]).

On to `CN(C)C(=O)c1cc2cnc(Nc3ccc(C(=O)N4CC5CCC(C4)N5C(=O)C4CCCN4)cn3)nc2n1C1CCCC1` (stereo not drawn) [Example 61, 7-Cyclopentyl-2-{5-[8-(pyrrolidine-2-carbonyl)-3,8-diaza-bicyclo[3.2.1]octane-3-carbonyl]-pyridin-2-ylamino}-7H-pyrrolo[2,3-d]pyrimidine-6-carboxylic acid dimethylamide], for which the IC50 is 53 nM in assay [1] (setting [2]), 21 nM in assay [1] (setting [3]), above 15000 nM at CDK1/cyclin B (setting [4]) and 20 nM at CDK4/cyclin D1 (setting [5]).

For the molecule `CN(C)C(=O)c1cc2cnc(Nc3ccc(N4C[C@@H]5CC[C@H](CC4=O)N5)cn3)nc2n1C1CCCCC1` [Example 132, 7-Cyclohexyl-2-[5-((1S,6R)-4-oxo-3,9-diaza-bicyclo[4.2.1]non-3-yl)-pyridin-2-ylamino]-7H-pyrrolo[2,3-d]pyrimidine-6-carboxylic acid dimethylamide], the IC50 in assay [1] (setting [6]) is 28 to 47 nM; in assay [1] (setting [7]), 21 to 50 nM; on CDK1/cyclin B (setting [4]), above 15000 nM; on CDK4/cyclin D1 (setting [5]), 19 nM.

For `CCOC(=O)N1C2CCC1CN(C(=O)c1ccc(Nc3ncc4cc(C(=O)N(C)C)n(C5CCCC5)c4n3)nc1)C2` [Example 64, 3-[6-(7-Cyclopentyl-6-dimethylcarbamoyl-7H-pyrrolo[2,3-d]pyrimidin-2-ylamino)-pyridine-3-carbonyl]-3,8-diaza-bicyclo[3.2.1]octane-8-carboxylic acid ethyl ester], the concentration for half-maximal inhibition (IC50) was 771 to 2200 nM in assay [1] (setting [2]), 323 to 466 nM in assay [1] (setting [3]), above 15000 nM on CDK1/cyclin B (setting [4]) and 72 to 179 nM at CDK4/cyclin D1 (setting [5]).

As to `CN(C)C(=O)c1cc2cnc(Nc3ccc(N4CC5CNCC5CC4=O)cn3)nc2n1C1CCCC1` (racemic) [Example 90, 7-cyclopentyl-N,N-dimethyl-2-(5-(cis-6-oxotetrahydro-1H-pyrrolo[3,4-c]pyridin-5(6H,7H,7aH)-yl)pyridin-2-ylamino)-7H-pyrrolo[2,3-d]pyrimidine-6-carboxamide], the IC50 is 14 to 56 nM in assay [1] (setting [6]), 9 to 34 nM in assay [1] (setting [7]), above 15000 nM at CDK1/cyclin B (setting [4]) and 5 nM on CDK4/cyclin D1 (setting [5]).

Consider `CN(C)C(=O)c1cc2cnc(Nc3ccc(C(=O)N4CC5(CNC5)C4)cn3)nc2n1C1CCCC1` [Example 41, 2-(5-(2,6-diazaspiro[3.3]heptane-2-carbonyl)pyridin-2-ylamino)-7-cyclopentyl-N,N-dimethyl-7H-pyrrolo[2,3-d]pyrimidine-6-carboxamide], for which the half-maximal inhibitory concentration (IC50) is 132 to 415 nM in assay [1] (setting [2]), 112 to 228 nM in assay [1] (setting [3]), above 15000 nM at CDK1/cyclin B (setting [4]) and 15 to 17 nM at CDK4/cyclin D1 (setting [5]).

Take `CN(C)C(=O)c1cc2cnc(Nc3ccc(C(=O)N4C[C@H]5CN[C@H](C5)C4)cn3)nc2n1C1CCCC1` [Example 11, 7-Cyclopentyl-2-[5-((1R,5R)-3,6-diaza-bicyclo[3.2.1]octane-3-carbonyl)-pyridin-2-ylamino]-7H-pyrrolo[2,3-d]pyrimidine-6-carboxylic acid dimethylamide]: the IC50 in assay [1] (setting [6]) was 68 nM; in assay [1] (setting [7]), 39 nM; on CDK1/cyclin B (setting [4]), above 15000 nM; at CDK4/cyclin D1 (setting [5]), 9 nM.

Regarding `CN(C)C(=O)c1cc2cnc(Nc3ccc(C(=O)N4CC5CCC4C5O)cn3)nc2n1C1CCCCCC1` [Example 7, 7-cycloheptyl-2-(5-((1R,4R,7R)-7-hydroxy-2-azabicyclo[2.2.1]heptane-2-carbonyl)pyridin-2-ylamino)-N,N-dimethyl-7H-pyrrolo[2,3-d]pyrimidine-6-carboxamide], the 50% inhibitory concentration (IC50) in assay [1] (setting [2]) was determined as 288 nM; in assay [1] (setting [3]) it was 127 nM; at CDK1/cyclin B (setting [4]), 17600 nM; on CDK4/cyclin D1 (setting [5]), 21 nM.

For the molecule `CN(C)C(=O)c1cc2cnc(Nc3ccc(C(=O)N4CCC5COCC(C4)N5)cn3)nc2n1C1CCCC1` (stereo not drawn) [Example 75, 7-Cyclopentyl-2-[5-(8-oxa-3,10-diaza-bicyclo[4.3.1]decane-3-carbonyl)-pyridin-2-ylamino]-7H-pyrrolo[2,3-d]pyrimidine-6-carboxylic acid dimethylamide], the half-inhibitory concentration (IC50) in assay [1] (setting [6]) was 525 nM; in assay [1] (setting [7]), 81 nM; on CDK1/cyclin B it was above 15000 nM; on CDK4/cyclin D1, 47 nM.

As for `CN(C)C(=O)c1cc2cnc(Nc3ccc(C(=O)N4CCN5CCC4CC5)cn3)nc2n1C1CCCC1` [Example 48, 7-Cyclopentyl-2-[5-(1,4-diaza-bicyclo[3.2.2]nonane-4-carbonyl)-pyridin-2-ylamino]-7H-pyrrolo[2,3-d]pyrimidine-6-carboxylic acid dimethylamide], the concentration for half-maximal inhibition (IC50) in assay [1] (setting [2]) was 229 nM; in assay [1] (setting [3]) it was 152 nM; at CDK1/cyclin B (setting [4]) it was above 15000 nM; on CDK4/cyclin D1 (setting [5]) it was 24 nM.

Turning to `CN(C)C(=O)c1cc2cnc(Nc3ccc(C(=O)N4CC5COCC(C4)N5)cn3)nc2n1C1CCCC1` [Example 70, 7-Cyclopentyl-2-[5-(3-oxa-7,9-diaza-bicyclo[3.3.1]nonane-7-carbonyl)-pyridin-2-ylamino]-7H-pyrrolo[2,3-d]pyrimidine-6-carboxylic acid dimethylamide], the concentration for half-maximal inhibition (IC50) in assay [1] (setting [2]) was 180 nM; in assay [1] (setting [3]), 117 nM; on CDK1/cyclin B (setting [4]) it was above 15000 nM; on CDK4/cyclin D1 (setting [5]), 39 nM.

`CN(C)C(=O)c1cc2cnc(Nc3ccc(C(=O)N4CC5CCC(C4)N5)cn3)nc2n1C1CCCCC1` [Example 66, 7-Cyclohexyl-2-[5-(3,8-diaza-bicyclo[3.2.1]octane-3-carbonyl)-pyridin-2-ylamino]-7H-pyrrolo[2,3-d]pyrimidine-6-carboxylic acid dimethylamide]: the IC50 in assay [1] (setting [6]) was 41 nM; in assay [1] (setting [7]), 38 nM; on CDK1/cyclin B (setting [4]), above 15000 nM; on CDK4/cyclin D1 (setting [5]), 4 to 7 nM.

With `CN(C)C(=O)c1cc2cnc(Nc3ccc(N4CC5CNCC5C4=O)cn3)nc2n1C1CCCC1` (racemic) [Example 84, 7-cyclopentyl-N,N-dimethyl-2-(5-cis-1-oxohexahydropyrrolo[3,4-c]pyrrol-2(1H)-yl)pyridin-2-ylamino)-7H-pyrrolo[2,3-d]pyrimidine-6-carboxamide], the IC50 in assay [1] (setting [6]) was 10 to 28 nM; in assay [1] (setting [7]), 7 to 17 nM; on CDK1/cyclin B (setting [8]), 18000 nM; on CDK4/cyclin D1 (setting [5]) it was below 5 nM.

Take `CN(C)C(=O)c1cc2cnc(Nc3ccc(C(=O)N4CC5CC(C4)N(CC(F)(F)F)C5)cn3)nc2n1C1CCCC1` (stereo not drawn) [Example 12, 7-Cyclopentyl-2-{5-[6-(2,2,2-trifluoro-ethyl)-3,6-diaza-bicyclo[3.2.1]octane-3-carbonyl]-pyridin-2-ylamino}-7H-pyrrolo[2,3-d]pyrimidine-6-carboxylic acid dimethylamide]: the IC50 in assay [1] (setting [2]) was 724 nM; in assay [1] (setting [3]) it was 255 nM; on CDK1/cyclin B (setting [4]), above 15000 nM; at CDK4/cyclin D1 (setting [5]), 49 nM.

With `CN(C)C(=O)c1cc2cnc(Nc3ccc(C(=O)N4CC5CCC(C4)N5)nn3)nc2n1C1CCCC1` [Example 38, 7-Cyclopentyl-2-[6-(3,8-diaza-bicyclo[3.2.1]octane-3-carbonyl)-pyridazin-3-ylamino]-7H-pyrrolo[2,3-d]pyrimidine-6-carboxylic acid dimethylamide], the IC50 is 139 to 783 nM in assay [1] (setting [6]), 75 to 259 nM in assay [1] (setting [7]), above 15000 nM at CDK1/cyclin B (setting [8]) and 45 to 84 nM on CDK4/cyclin D1.

Turning to `CN(C)C(=O)c1cc2cnc(Nc3ccc(C(=O)N4CC5CCC(C4)N5)cn3)nc2n1C1CCCOC1` (stereo not drawn) [Example 65, 2-(5-(3,8-diazabicyclo[3.2.1]octane-3-carbonyl)pyridin-2-ylamino)-N,N-dimethyl-7-(tetrahydro-2H-pyran-3-yl)-7H-pyrrolo[2,3-d]pyrimidine-6-carboxamide], the IC50 was 132 to 458 nM in assay [1] (setting [2]), 126 to 211 nM in assay [1] (setting [3]), above 15000 nM at CDK1/cyclin B (setting [4]) and 76 nM at CDK4/cyclin D1 (setting [5]).

On to `CNC(=O)c1cc2cnc(Nc3ccc(N4C[C@H]5CC[C@@H](CC4=O)N5C)cn3)nc2n1C1CCCC1` [Example 125, 7-cyclopentyl-2-[5-((1R,6S)-9-methyl-4-oxo-3,9-diaza-bicyclo[4.2.1]non-3-yl)-pyridin-2-ylamino]-7H-pyrrolo[2,3-c]pyrimidine-6-carboxylic acid methylamide], for which the IC50 in assay [1] (setting [2]) was 161 nM; in assay [1] (setting [3]) it was 83 nM; on CDK1/cyclin B (setting [4]), above 15000 nM; at CDK4/cyclin D1 (setting [5]), 15 nM.

The values above are taken from patent US8957074B2 (Novartis AG, priority 2010, dated 2015).
